The values below come from ChEMBL document CHEMBL3085729, “Total synthesis of schizocommunin and revision of its structure” (J Nat Prod, 2013).

For one assay, the system named is A549. The experiment in a line: Antiproliferative activity against human A549 cells after 48 hrs. The assay is classed as functional, cell-based. Particulars: A549, 48 h.
A further assay deals with HeLa. The experiment in a line: Antiproliferative activity against human HeLa cells after 48 hrs. The assay is classed as functional, cell-based.

As usually defined, the IC50 is the concentration that gives 50% inhibition.

For the molecule `O=C1Nc2ccccc2/C1=C\c1nnc2ccccc2c1Cl`, the IC50 stood at 93.3 µM in the assay with A549 and 7.8 µM in the assay with HeLa.

On to `COc1c(/C=C2/C(=O)Nc3ccccc32)nnc2ccccc12`, for which the IC50 in the assay with A549 was more than 100 µM; in the assay on HeLa, 19.6 µM.

As to `CC(=O)N1C(=O)/C(=C/c2nnc3ccccc3c2Cl)c2ccccc21`, the IC50 in the assay on A549 is more than 100 µM; in the assay on HeLa, 28.8 µM.

As for `O=C1Nc2ccccc2/C1=C\c1n[nH]c2ccccc2c1=O`, the IC50 in the assay on A549 and in the assay with HeLa was more than 100 µM in each case.

With `O=C1Nc2ccccc2/C1=C/c1nc2ccccc2c(=O)[nH]1`, the figures for the IC50 in the assay on A549 and with HeLa were more than 100 µM and 15.2 µM, respectively.
